“Also recorded” adds a separate entry of the source.
Legend:
CYP 2C19 = target: T1, CYP 2C19 (Homo sapiens, UniProt P33261); test: CYP (cytochrome P450)-suppressing effect, BD GENTEST kit; assay type: in vitro ADME
T1 construct: purchased BD GENTEST 459400
Description: (§1) To evaluate the CYP (cytochrome P450)-suppressing activity of the compounds prepared in the examples of the invention, the following experiment was performed.
(§2) The analysis of CYP1A2, 2C19, and 3A4 suppressing activity was performed by using a BD GENTEST (459100, 459400, and 459500) kit, and the analysis of CYP 2C9- and 2D6-suppressing activity was performed by using an Invitrogen (P2861 and P2862) kit.
(§3) When the BD GENTEST kit was used, the compounds of the present invention were diluted in acetonitrile at the final concentration of 50×. The NADPH-Cofactor mix was prepared by diluting the Cofactor, G6PDH, and control protein provided by the kit in DW according to the instructed concentration. 4 μL of the compound of the example (50×) was mixed with 96 μL of NADPH-Cofactor mix in a 96-well plate, followed by pre-incubation in a 37° C. incubator for 10 minutes.
(§4) The enzyme/substrate mixture was diluted in the buffer (0.5 M potassium phosphate, pH 7.4) provided by the kit according to the instructed concentration. Each CYP450 enzyme substrate was diluted in DW at a desired concentration respectively according to the corresponding types of CYP450. 100 μL of the enzyme/substrate mixture was loaded in the plate when the pre-incubation had been completed, followed by reaction in a 37° C. incubator for 15 minutes (1A2) and 30 minutes (3A4 and 2C19). Upon completion of the reaction, the mixture was transferred to a white plate, and the fluorescent wavelength was measured with a microplate reader (1A2, 2C19 excitation 410 nm, emission 460 nm; 3A4, excitation 409 nm, emission 530 nm).
(§5) The test results were calculated by the following formula:
(§6) (1−(fluorescence value of the test material/fluorescence value of the vehicle))×100%.

CYP1A2 = target: T2, CYP1A2 (Homo sapiens, UniProt P05177); test: as above; assay type: in vitro ADME
T2 construct: purchased BD GENTEST 459100
T2 sequence (P05177 1-516): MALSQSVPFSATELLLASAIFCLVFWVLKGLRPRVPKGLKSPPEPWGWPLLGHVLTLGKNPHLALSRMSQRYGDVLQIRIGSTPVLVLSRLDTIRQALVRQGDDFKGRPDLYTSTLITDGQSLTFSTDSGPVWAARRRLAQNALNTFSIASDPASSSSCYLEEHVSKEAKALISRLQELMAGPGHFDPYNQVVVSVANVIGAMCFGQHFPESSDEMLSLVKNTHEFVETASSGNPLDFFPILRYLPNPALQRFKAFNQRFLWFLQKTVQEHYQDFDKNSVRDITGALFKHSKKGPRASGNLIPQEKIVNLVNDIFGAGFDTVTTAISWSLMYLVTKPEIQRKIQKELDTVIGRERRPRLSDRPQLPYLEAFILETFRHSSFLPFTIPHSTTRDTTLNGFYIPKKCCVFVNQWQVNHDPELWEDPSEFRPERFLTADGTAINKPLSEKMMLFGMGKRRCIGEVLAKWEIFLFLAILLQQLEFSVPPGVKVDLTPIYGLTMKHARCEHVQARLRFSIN
Description: as §1, §2, §3, §4, §5, §6

CYP 3A4 = target: T3, CYP 3A4 (Homo sapiens, UniProt P08684); test: as above; assay type: in vitro ADME
T3 construct: purchased BD GENTEST 459500
Description: as §1, §2, §3, §4, §5, §6

CYP 2C9 = target: T4, CYP 2C9 (Homo sapiens, UniProt P11712); test: CYP (cytochrome P450)-suppressing effect, Invitrogen Vivid kit; assay type: in vitro ADME
T4 construct: purchased Invitrogen P2861
Description: as §1, §2
(§7) When the Invitrogen kit was used, the compounds of the present invention were diluted in Vivid CYP450 reaction buffer (1×) at the final concentration of 2.5×. The P450 BACULOSOMES sample and Regeneration system (100×) were diluted in Vivid CYP450 reaction buffer (1×) at different proper concentrations. 80 μL of the compound of the invention (2.5×) and […] of the diluted P450 BACULOSOMES sample mixture were mixed in a U-bottom 96-well plate, followed by pre-incubation for 10 minutes. Vivid CYP450 Substrate and NADP+ (100×) were diluted in Vivid CYP450 reaction buffer (1×) at a desired concentration, respectively, according to their corresponding types of CYP450 and substrates. 20 μL of Substrate-NADP+ mix was loaded in the plate when the pre-incubation had been completed, followed by reaction for 1 hour. Upon completion of the reaction, the reaction mixture was transferred in a white plate and fluorescent wavelength was measured with a microplate reader (2C9 excitation 415 nm, emission 460 nm, 2D6 excitation 400 nm, emission 502 nm).
as §5, §6

CYP 2D6 = target: T5, CYP 2D6 (Homo sapiens, UniProt P10635); test: as above; assay type: in vitro ADME
T5 construct: purchased Invitrogen P2862
Description: as §1, §2, §7, §5, §6

[1] = target: T6, PPARG (peroxisome proliferator activated receptor-gamma), GST-PPARG-LBD (Homo sapiens, UniProt P37231); test: LanthaScreen TR-FRET PPARG Competitive Binding Assay; design: key: “+” indicates the degree of the binding activity, and as the number of “+” increases, the binding activity is stronger; ++: “+” indicates the degree of the binding activity, and as the number of “+” increases, the binding activity is stronger; +++: “+” indicates the degree of the binding activity, and as the number of “+” increases, the binding activity is stronger; ++++: “+” indicates the degree of the binding activity, and as the number of “+” increases, the binding activity is stronger; details: degree of binding activity
T6 construct: 15 μL of 5 nM GST-PPARG-LBD and 5 nM Tb-GST-antibody were added; purchased Invitrogen PV4894
T6 sequence (P37231 238-503 limits assumed): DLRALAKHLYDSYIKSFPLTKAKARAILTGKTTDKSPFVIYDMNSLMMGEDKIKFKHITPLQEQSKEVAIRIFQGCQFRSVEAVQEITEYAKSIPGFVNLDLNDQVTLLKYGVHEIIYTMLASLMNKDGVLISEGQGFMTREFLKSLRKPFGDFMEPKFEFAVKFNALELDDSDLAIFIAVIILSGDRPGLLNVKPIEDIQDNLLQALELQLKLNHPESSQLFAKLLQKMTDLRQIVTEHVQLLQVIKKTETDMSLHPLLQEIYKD
In short: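 Ratio of 518 nm to 488 nm time-resolved emission after a 1 h room-temperature incubation, in competition format with GST-PPARG ligand-binding domain. Values are expressed as 100% minus compound-to-vehicle ratio and related to rosiglitazone binding.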

[2] = test system: CYP isozymes 1A2, 2C9, 2C19, and 2D6; test: CYP suppression compared with comparative examples (Table 3); assay type: in vitro ADME; details: result in words
Description: as §1, §2, §7, §3, §4, §5, §6

T3 sequence (P08684 whole entry): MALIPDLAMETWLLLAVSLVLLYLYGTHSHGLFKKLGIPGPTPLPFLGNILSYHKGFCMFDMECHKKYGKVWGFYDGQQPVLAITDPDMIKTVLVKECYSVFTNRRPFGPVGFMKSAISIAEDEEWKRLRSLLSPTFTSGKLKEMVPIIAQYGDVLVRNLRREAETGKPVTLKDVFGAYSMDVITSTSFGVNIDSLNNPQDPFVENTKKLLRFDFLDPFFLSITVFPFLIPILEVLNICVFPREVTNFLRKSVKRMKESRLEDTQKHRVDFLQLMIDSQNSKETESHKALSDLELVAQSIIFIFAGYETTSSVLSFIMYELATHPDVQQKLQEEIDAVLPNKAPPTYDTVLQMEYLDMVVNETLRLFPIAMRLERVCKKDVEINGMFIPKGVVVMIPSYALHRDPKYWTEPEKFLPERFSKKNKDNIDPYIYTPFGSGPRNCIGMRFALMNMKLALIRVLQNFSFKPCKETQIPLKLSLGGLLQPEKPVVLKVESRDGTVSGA
T5 sequence (P10635 whole entry): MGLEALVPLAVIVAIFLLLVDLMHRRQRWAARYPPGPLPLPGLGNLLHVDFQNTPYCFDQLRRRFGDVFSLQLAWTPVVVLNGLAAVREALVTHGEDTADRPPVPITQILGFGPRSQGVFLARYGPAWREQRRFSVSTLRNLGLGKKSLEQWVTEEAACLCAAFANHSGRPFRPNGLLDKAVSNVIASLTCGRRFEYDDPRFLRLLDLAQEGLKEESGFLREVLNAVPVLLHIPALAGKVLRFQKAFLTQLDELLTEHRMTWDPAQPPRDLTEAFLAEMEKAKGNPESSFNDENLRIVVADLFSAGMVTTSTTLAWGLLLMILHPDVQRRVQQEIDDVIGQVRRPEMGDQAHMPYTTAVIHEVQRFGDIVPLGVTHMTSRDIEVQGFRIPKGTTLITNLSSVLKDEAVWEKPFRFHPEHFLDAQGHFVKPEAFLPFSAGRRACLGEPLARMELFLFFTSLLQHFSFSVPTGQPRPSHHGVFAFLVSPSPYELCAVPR
T1 sequence (P33261 whole entry): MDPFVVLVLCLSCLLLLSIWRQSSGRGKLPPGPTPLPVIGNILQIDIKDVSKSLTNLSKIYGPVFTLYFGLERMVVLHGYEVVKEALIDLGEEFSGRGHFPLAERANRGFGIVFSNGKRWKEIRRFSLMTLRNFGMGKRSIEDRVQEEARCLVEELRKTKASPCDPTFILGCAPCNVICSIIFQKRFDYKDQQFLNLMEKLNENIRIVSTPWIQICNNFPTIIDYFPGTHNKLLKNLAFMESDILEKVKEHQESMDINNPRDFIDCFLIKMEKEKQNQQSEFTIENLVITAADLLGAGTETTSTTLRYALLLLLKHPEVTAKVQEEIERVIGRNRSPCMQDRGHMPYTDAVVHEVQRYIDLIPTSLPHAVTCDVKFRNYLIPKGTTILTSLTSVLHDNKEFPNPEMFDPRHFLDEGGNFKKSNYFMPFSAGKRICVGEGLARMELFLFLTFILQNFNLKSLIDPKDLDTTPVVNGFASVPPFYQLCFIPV
T4 sequence (P11712 whole entry): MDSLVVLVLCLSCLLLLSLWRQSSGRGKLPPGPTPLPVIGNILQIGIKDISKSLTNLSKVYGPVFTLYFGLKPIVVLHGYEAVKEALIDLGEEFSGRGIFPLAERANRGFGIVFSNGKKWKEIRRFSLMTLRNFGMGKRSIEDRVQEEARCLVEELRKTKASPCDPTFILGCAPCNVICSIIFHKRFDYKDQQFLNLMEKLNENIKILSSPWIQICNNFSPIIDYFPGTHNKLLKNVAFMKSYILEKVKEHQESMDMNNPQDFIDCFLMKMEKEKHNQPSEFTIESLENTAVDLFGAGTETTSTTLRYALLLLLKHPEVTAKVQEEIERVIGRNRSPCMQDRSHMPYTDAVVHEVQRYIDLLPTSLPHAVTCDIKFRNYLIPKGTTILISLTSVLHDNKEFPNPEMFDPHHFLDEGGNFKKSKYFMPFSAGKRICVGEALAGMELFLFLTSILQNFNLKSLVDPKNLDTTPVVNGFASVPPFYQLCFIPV

SMILES	CYP(10 μL, %) 2C19 (CYP 2C19)	CYP(10 μL, %) 1A2 (CYP1A2)	CYP(10 μL, %) 3A4 (CYP 3A4)	CYP(10 μL, %) 2C9 (CYP 2C9)	CYP(10 μL, %) 2D6 (CYP 2D6)	Binding assay (1 μLM) [1]	suppression of CYP isozymes 1A2, 2C9, 2C19, and 2D6 compared with SR1664 and SR1824 [2]
Cc1c(C)n(Cc2ccc(-c3ccccc3C(=O)O)cc2)c2ccc(C(=O)NC(C)c3ccc(Br)cc3)cc12 (stereo not drawn) [2 (SR1824), SR1824, reference compound]	32.45%	64.12%	71.88%	6.43%	68.34%	–	–
C[C@H](NC(=O)c1ccc2c(c1)CCCN2Cc1ccc(-c2ccccc2C(N)=O)cc1)c1ccc(F)cc1 [Example 36, (S)-1-((2′-carbamoyl-[1,1′-biphenyl]-4-yl)methyl)-N-(1-(4-fluorophenyl)ethyl)-1,2,3,4-tetrahydroquinoline-6-carboxamide]	52.68%	98.84%	58.18%	51.03%	75.73%	+++	less than the compounds of the comparative examples; also recorded: less strongly than the compounds of the Comparative Examples
C[C@H](NC(=O)c1ccc2c(c1)CCCN2Cc1ccc(-c2ccccc2C(N)=O)cc1)c1ccc2ccccc2c1 [Example 44, (S)-1-((2′-carbamoyl-[1,1′-biphenyl]-4-yl)methyl)-N-(1-(naphthalene-2-yl)ethyl)-1,2,3,4-tetrahydroquinoline-6-carboxamide]	59.55%	94.56%	70.42%	56.40%	97.07%	+++	less than the compounds of the comparative examples; also recorded: less strongly than the compounds of the Comparative Examples
C[C@H](NC(=O)c1ccc2c(c1)OCCN2Cc1ccc(-c2ccccc2C(=O)O)cc1)c1ccccc1 [Example 58, (S)-4′-((7-((1-phenylethyl)carbamoyl)-2H-benzo[b][1,4]oxazine-4(3H)-yl)methyl)-[1,1′-biphenyl]-2-carboxylic acid]	70.53%	100.93%	56.92%	57.47%	55.23%	+	less than the compounds of the comparative examples; also recorded: less strongly than the compounds of the Comparative Examples
C[C@H](NC(=O)c1ccc2c(c1)OCCN2Cc1ccc(-c2ccccc2C(=O)O)cc1)c1ccc([N+](=O)[O-])cc1 [Example 60, (S)-4′-((7-((1-(4-nitrophenyl)ethyl)carbamoyl)-2H-benzo[b][1,4]oxazine-4(3H)-yl)methyl)-[1,1′-biphenyl]-2-carboxylic acid]	69.60%	100.63%	70.64%	80.25%	62.27%	++	less than the compounds of the comparative examples; also recorded: less strongly than the compounds of the Comparative Examples

Continued, in another order:

CYP(10 μL, %) 2C19 (CYP 2C19)	CYP(10 μL, %) 1A2 (CYP1A2)	CYP(10 μL, %) 3A4 (CYP 3A4)	CYP(10 μL, %) 2C9 (CYP 2C9)	CYP(10 μL, %) 2D6 (CYP 2D6)	Binding assay (1 μLM) [1]	SMILES	suppression of CYP isozymes 1A2, 2C9, 2C19, and 2D6 compared with SR1664 and SR1824 [2]
79.96%	97.99%	71.24%	64.28%	86.13%	++	C[C@H](NC(=O)c1ccc2c(c1)CCCN2Cc1ccc(-c2ccccc2C(=O)O)cc1)c1ccc(C#N)cc1 [Example 14, (S)-4′-((6-((1-(4-cyanophenyl)ethyl)carbamoyl)-3,4-dihydroquinoline-1(2H)-yl)methyl)-[1,1′-biphenyl]-2-caboxylic acid]	less than the compounds of the comparative examples; also recorded: less strongly than the compounds of the Comparative Examples
75.69%	100.32%	59.17%	58.87%	82.59%	+++	C[C@H](NC(=O)c1ccc2c(c1)CCCN2Cc1ccc(-c2ccccc2C(=O)[O-])cc1)c1ccc(C#N)cc1.[Na+] [Example 57, sodium (S)-4′-((6-((1-(4-cyanophenyl)ethyl)carbamoyl)-3,4-dihydroquinoline-1(2H)-yl)methyl)-[1,1′-biphenyl]-2-carboxylate]	less than the compounds of the comparative examples; also recorded: less strongly than the compounds of the Comparative Examples
91.36%	102.89%	81.98%	80.68%	83.97%	+	C[C@H](NC(=O)c1ccc2c(c1)OCCN2Cc1ccc(-c2ccccc2C(=O)O)cc1)c1ccc(C#N)cc1 [Example 74, (S)-4′-((7-((1-(4-cyanophenyl)ethyl)carbamoyl)-2H-benzo[b][1,4]oxazine-4(3H)-yl)methyl)-[1,1′-biphenyl]-2-carboxylic acid]	less than the compounds of the comparative examples; also recorded: less strongly than the compounds of the Comparative Examples

Reference: patent publication US20160355483A1, “COMPOUND BINDING TO PPARG BUT NOT ACTING AS PROMOTER AND PHARMACEUTICAL COMPOSITION FOR TREATING PPARG-RELATED DISEASES CONTAINING SAME AS ACTIVE INGREDIENT” (Hyundai Pharm Co., Ltd., priority 2014, published 2016)
